In brackets after ≈: the same amount, converted by molar mass. Activity calls are given as the source filed them. The calls are words filed in the database; no cut-off is given here.
Tests used:
Perknaster fuscus = test: Deterrent activity against Perknaster fuscus assessed as induction of sustained retractions of tube-feet by sea-star deterrent assay; assay type: functional, organism-based
Escherichia coli = test: Antimicrobial activity against […] coli at 120 ug/disk after 48 hrs by paper disk method; assay type: functional, organism-based
Staphylococcus aureus = test: Antimicrobial activity against Staphylococcus aureus at 120 ug/disk after 48 hrs by paper disk method; assay type: functional, organism-based
L5178Y = test: Cytotoxicity against mouse L5178Y cells by trypan blue exclusion method; assay type: functional; details: read-out: LD50 (the source's name)
[1] = tested on: Staphylococcus epidermidis; test: Antimicrobial activity against Staphylococcus epidermidis at 120 ug/disk after 48 hrs by paper disk method; assay type: functional, organism-based

SMILES | Activity (Perknaster fuscus) | other results
O=C(O)CCNc1ncnc2[nH]c(=O)[nH]c12 [ERINACEAN] | inactive | Activity (Escherichia coli): Active; Activity (Staphylococcus aureus): Active; CC50 (L5178Y): 50 µg/mL (≈ 224 µM); Activity [1]: Active
Cn1cnc2ncnc(N)c21 | inactive | –
Cn1c(N)nc2c(ncn2C)c1=O | inactive | –
O=c1[nH]cnc2c1ncn2[C@@H]1O[C@H](CO)[C@@H](O)[C@H]1O | inactive | –
O=Cc1ccc(O)cc1 | Active | –
Nc1ccn([C@H]2C[C@H](O)[C@@H](CO)O2)c(=O)n1 | inactive | –
O=c1ccn([C@@H]2O[C@H](CO)[C@@H](O)[C@H]2O)c(=O)[nH]1 | inactive | –

— ChEMBL document CHEMBL1159195, “Purine and nucleoside metabolites from the Antarctic sponge Isodictya erinacea” (1998)
